# Legend:
# Assay type in all cases: in vivo, human
# [1] = system: multiple sclerosis patients; test: Total (whole) brain gray matter volume change on brain MRI, SIENAX segmentation (Example 1); details: over 24 months
# Procedure: The effect of estriol treatment as compared to placebo treatment on total (whole) brain gray matter (GM) atrophy was assessed since gray matter atrophy is a surrogate marker for permanent disability in MS. […] The GM volume change from the month 0 scan to the month 12 scan and then the volume change from the month 0 scan to the month 24 scan was calculated.
# [2] = system: relapsing remitting multiple sclerosis patients; test: Expanded Disability Status Scale (EDSS) change and disability progression; details: for Proportion of pts with progression at 24 months % (95% CI): EDSS progression sustained at least 6 months, Kaplan-Meier; for EDSS change at 24 months (median): within group comparison vs baseline, negative values indicate improvement
# Procedure: Standardized neurologic assessments, including an EDSS assessment, were performed at months 0, 3, 6, 12, 18 and 24, and at the time of a suspected relapse (as an additional unscheduled visit). EDSS assessments were performed by physicians who were trained either by in-person training or online (www.Neurostatus.net). MRI scans were obtained at screening and at months 0, 3, 6, 12 and 24. Subjects were seen or contacted every 3 months for compliance assessments and for dispensing medications.
# (§1) Secondary efficacy end points included the proportion of subjects with a relapse over all 24 months, a change in PASAT cognitive testing, a sustained improvement in PASAT cognitive testing (as defined by an increase of at least 3 points sustained over at least 6 months), a change in EDSS scores from baseline, disability progression (as defined by an increase in EDSS of at least 1.0 point in subjects with a baseline score of 1.0 or higher, or by an increase of at least a 1.5 points in subjects with a baseline score of 0, each sustained for at least 6 months). Tertiary end points included gray matter atrophy on MRI.
# For the time to first relapse analysis, Kaplan Meier curves and log-rank test were used to estimate and compare the relapse free probabilities of the two treatment groups. Cox proportional hazards model was used to compare the time to relapse free probabilities between two groups adjusting for covariates. The fixed effects include treatment groups (Estriol+GA vs Placebo+GA), baseline lesion number, age and baseline EDSS score. The random effect of subject is included in the model to account for within subject correlation.
# (§2) Linear mixed effects model was carried out to compare the percent change in whole gray matter and cortical gray matter between treatment groups. For the exploratory endpoints of EDSS, PASAT, and brain volume measures, linear mixed effects model was used to compare treatment groups at 12 and 24 months. Linear mixed effects model was carried out to evaluate the association between PASAT change and percent brain volume change.
# [3] = system: relapsing remitting multiple sclerosis patients; test: Multiple Sclerosis Functional Composite (MSFC): PASAT3, 9-Hole Peg Test, 25-foot Walk Time
# Text: as §1, §2
# Another clinical disability measure with treatment effects was the timed 25-foot walk test. This test measures how many seconds it takes to walk 25 feet, with higher scores indicating worse disability. […] This beneficial effect of estriol treatment on 25-foot walking times is consistent with the beneficial effect of estriol treatment on EDSS scores since the latter is weighted toward being an indicator of ambulation.
# There were no significant differences between groups in the Multiple Sclerosis Functional Composite (MSFC), which reflects a composite of scores including the Paced Auditory Serial Addition Test (PASAT) for cognition, the 9 hole peg test and the 25 foot walk test (Table 4). However, an interesting effect of combination treatment was observed on cognitive disability. A perfect PASAT score is 60, with scores lower than 55 serving as a continuous variable for disability. […] After 12 months of treatment, patients receiving Copaxone® plus estriol continued to have high PASAT scores to the end of study at month 24, while participants receiving placebo began to show […] PASAT scores by month 24. […] This represents repair of disability, not merely prevention of worsening. This beneficial effect on PASAT scores at 12 months in the Estriol plus GA group could not be attributed to practice effects of repeated testing since the comparison was with the Placebo plus GA group tested at identical time points.
# [4] = system: relapsing remitting multiple sclerosis patients; test: Delayed Recall Test, proportion with perfect score
# Procedure: The estriol and placebo subjects were administered the Delayed Recall Test periodically throughout the study. A perfect score on the test is 7, and for both treatment groups, the median score was also 7. Therefore, performance was assessed by the proportion of subjects in each group who achieved a perfect score on the test. […] Logistic regression for repeated measurement was used to compare the probability having a perfect score between the two treatment groups, adjusting for age, education level, and baseline recall (Table 9).
# [5] = first of two lines headed Month 24 (N = 70 / N = 60), positive value indicates worsening
# [6] = positive value indicates improvement
# [7] = positive value indicates worsening
# [8] = second line headed Month 24 (N = 60 / N = 55), positive value indicates worsening
substance,measurement,setting,value
glatiramer acetate [Placebo + GA],overall rate of GM atrophy,[1],over 1.0 % per year
same,Proportion of pts with progression at 24 months % (95% CI),[2],15.8 (8.8-27.6) %
same,Proportion of pts with progression at 24 months % (95% CI),[2]; listed as Placebo plus GA,15.8%
same,"EDSS scores over 24 months, slope",[2]; FIG. 6,−0.01
same,EDSS change at 24 months (median),[2],0
same,EDSS change at 24 months (median),[2]; listed as Copaxone® plus placebo,no change
same,EDSS change at 24 months (median),[2]; listed as Placebo plus GA,stable and unchanged
same,"PASAT score change at 12 months, within group comparison",[3]; FIG. 7B,no change
same,PASAT scores improvement compared with baseline,[3]; by 12 months of treatment,no significant improvement
same,"25-foot Walk Time, Change from baseline at Month 24, Mean ± SD",[3]; [5],0.0 ± 0.9
same,"25-foot Walk Time, Change from baseline at Month 24, Median",[3]; [5],0.0
same,"timed 25-foot walk test, walk time","[3]; over the study, higher scores indicate worse disability",significantly increased
same,"MSFC Score, Change from baseline at Month 12, Mean ± SD",[3]; [6],0.06 ± 0.38
same,"MSFC Score, Change from baseline at Month 24, Mean ± SD",[3]; [6],0.09 ± 0.43
same,"PASAT3 score - All Patients, % change from baseline at Month 12, Mean ± SD",[3]; [6],0.8 ± 9.9%
same,"PASAT3 score - All Patients, % change from baseline at Month 12, Median",[3]; [6],0%
same,"PASAT3 score - All Patients, % change from baseline at Month 24, Mean ± SD",[3]; [6],2.7 ± 10.3%
same,"PASAT3 score - All Patients, % change from baseline at Month 24, Median",[3]; [6],0%
same,"PASAT3 score - All Patients, change from baseline at Month 12, Mean ± SD",[3]; [6],0.1 ± 4.5
same,"PASAT3 score - All Patients, change from baseline at Month 12, Median",[3]; [6],0
same,"PASAT3 score - All Patients, change from baseline at Month 24, Mean ± SD",[3]; [6],1.1 ± 4.3
same,"PASAT3 score - All Patients, change from baseline at Month 24, Median",[3]; [6],0
same,"PASAT3 score - Patients with baseline score <55, % change from baseline at Month 12, Mean ± SD",[3]; [6],4.0 ± 14.0%
same,"PASAT3 score - Patients with baseline score <55, % change from baseline at Month 12, Median",[3]; [6],3.8%
same,"PASAT3 score - Patients with baseline score <55, % change from baseline at Month 24, Mean ± SD",[3]; [6],6.9 ± 14.7%
same,"PASAT3 score - Patients with baseline score <55, % change from baseline at Month 24, Median",[3]; [6],9.1%
same,"PASAT3 score - Patients with baseline score <55, change from baseline at Month 12, Mean ± SD",[3]; [6],1.6 ± 6.0
same,"PASAT3 score - Patients with baseline score <55, change from baseline at Month 12, Median",[3]; [6],1.0
same,"PASAT3 score - Patients with baseline score <55, change from baseline at Month 24, Mean ± SD",[3]; [6],3.0 ± 5.9
same,"PASAT3 score - Patients with baseline score <55, change from baseline at Month 24, Median",[3]; [6],4.0
same,"9-Hole Peg Test, Change from baseline at Month 12, Mean ± SD",[3]; [7],−0.1 ± 1.8
same,"9-Hole Peg Test, Change from baseline at Month 12, Median",[3]; [7],−0.4
same,"9-Hole Peg Test, Change from baseline at Month 24, Mean ± SD",[3]; [7],−0.4 ± 1.5
same,"9-Hole Peg Test, Change from baseline at Month 24, Median",[3]; [7],−0.5
same,"25-foot Walk Time, Change from baseline at Month 24, Mean ± SD",[3]; [8],0.1 ± 1.1
same,"25-foot Walk Time, Change from baseline at Month 24, Median",[3]; [8],0.1
same,Percentage of subjects achieving a perfect score on the Delayed Recall Test,[4]; Month 3,65.9 (48/74) %
same,Percentage of subjects achieving a perfect score on the Delayed Recall Test,[4]; Month 6,76.1 (54/71) %
same,Percentage of subjects achieving a perfect score on the Delayed Recall Test,[4]; Month 12,69.8 (44/63) %
same,Percentage of subjects achieving a perfect score on the Delayed Recall Test,[4]; Month 18,65.4 (36/55) %
same,Percentage of subjects achieving a perfect score on the Delayed Recall Test,[4]; Month 24,75.0 (42/56) %
same,"Delayed Recall Test, Estimated perfect score rate (95% CI)","[4]; logistic regression for repeated measurement, adjusted for age, education level, baseline recall","73.2 (65.7, 79.5) %"
